Holding throughout (type): in vivo
One assay concerns Sprague-Dawley rats. The experiment in a line: Antiallodynic activity on vincristine-induced pain model. Particulars: intraperitoneally; for ED50: Rattus norvegicus, ip. On the procedure: Male, Sprague-Dawley rats (160-180 g, Nara Bio, Korea) were habituated for 1 week before surgery and allowed free access to food and water throughout the experimentation. Room temperature and humidity were maintained at 24±2 and 50±10%, respectively.
The vincristine-induced pain model was established by the procedure of Natsuko et al. (2001) with minor modifications. Vincristine was intravenously infused continuously for 14 days using a mini-osmotic pump as follows: 30 ug/kg vincristine sulfate solution (Hospira, Australia) was diluted with 0.9% saline. The pumps (Alzet Model 2002, USA) were filled with the vincristine solution and primed by incubation at 37 for 4 hours before the infusion. Briefly, animal were put under gaseous anesthesia with isoflurane. A catheter made from PE-60 tube was inserted into an external jugular vein in rat. Sham controls were prepared in the same manner, with the external jugular vein exposed, but with the external jugular vein not cut down. […]
Tactile sensitivity (Mechanical allodynia) was evaluated using von Frey monofilaments before and after treatment, and animals were used withdrawal threshold value was less than 4 g. […] The tactile sensitivity for ipsilateral hind paw was measured using the up-and-down method (Dixon, 1980) with seven von Frey monofilaments (0.4, 1, 2, 4, 6, 8, and 15 g) to 3 trials. […] The 50% paw withdrawal threshold for each paw was calculated using the following formula: [Xth] log=[vFr] log+ky where [vFr] is the force of the last von Frey used, k=0.2249 which is the average interval (in log units) between the von Frey monofilaments, and y is a value that depends upon the pattern of withdrawal responses (Dixon, 1980).
Antiallodynic effect of compound was evaluated at the three dose, intraperitoneally administrated in a volume of 5 ul/g, bw in a vehicle of 30% (v/v) PEG or 20% (v/v) Tween 80. […]
The relative values compared to the sham (% control) were calculated and shown in Table 5, which show an antiallodynic effect of Compound 2&7 on vincristine-induced pain model in rats.

For assay [1], the system named is ICR mice. The experiment in a line: Chemical induced seizure model (BIC). The note with it: for ED50: Mus musculus, ip. On the procedure:
(§1) Male ICR mice (purchased from Orient Bio Inc. Korea) of body weight 19-26 g were used for these studies. The test materials were administered intraperitoneal route in a volume of 10 ul/g weight. Pharmacological effects of all the test materials were evaluated to compared test groups (n=6) with a control group (n=6). Control group was administrated vehicle, only. The peak time was determined by administration test material's random dose for 0.5-4 hour. The time that the most protect was defined peak time and ED50 was determined by other dose administration at peak time. BIC was dissolved in 0.9% saline and administered subcutaneously (s.c.) at its CD97 (convulsive dose 97%) the dose of BIC that produced clonic seizures in 97% into a loose fold of skin in the midline of the neck in a volume of 10 ul/g body weight. The animals were then transferred to observation cages and observed continuously for 30 min. Clonic seizure was elicited in approximately 95% of control group. Protection was defined as complete absence of a clonic seizure over the 30-min observation period. The time that the most protect was defined peak time and ED50 was determined by other dose administration at peak time. The effective dose of compound necessary to protect against seizures to 50% of controls (i.e. ED50) was determined by log probit analysis using Excel 2007 (Microsoft).

The subject of assay [2] is ICR mice. The experiment in a line: Chemical induced seizure model (strychnine). Particulars: intraperitoneal. As for the experimental part:
as §1, with “weight 19-27” for “weight 19-26”, “for 0.5, 1, 2” for “for 0.5-4”, “time. Strychnine” for “time. BIC”, “administered intraperitoneally (i.p.)” for “administered subcutaneously (s.c.)”, “of strychnine” for “of BIC”, “97%” for “97% into a loose fold of skin in the midline of the neck”

Consider `C[C@@H](OS(N)(=O)=O)[C@H](O)c1ccccc1Cl` [Example 2, (1R, 2R)-1-(2-chlorophenyl)-1-hydroxypropan-2-yl sulfamate], for which the ED50 – broadly, the dose that gives a 50% effect, or the effect in half of the subjects – in the assay on Sprague-Dawley rats was above 20 mg/kg.
Turning to `C[C@@H](OS(N)(=O)=O)[C@H](O)c1c(Cl)cccc1Cl` [Example 8, (1R, 2R)-1-(2,6-dichlorophenyl)-1-hydroxypropan-2-yl sulfamate], in the assay with ICR mice [1], the “BIC(ip) Peak Time” value was found to be 1 h and it took a dose of 73.9 mg/kg to reach the 50% effect level (ED50).
Turning to `C[C@H](OS(N)(=O)=O)[C@@H](O)c1c(Cl)cccc1Cl` [Example 7, (1S, 2S)-1-(2,6-dichlorophenyl)-1-hydroxypropan-2-yl sulfamate], in the assay on ICR mice [2] (Mus musculus, ip, read-out: Strychnine test ED50), the ED50 was determined as 75.8 mg/kg. Also, in the assay on ICR mice [2], the “Strychnine test Peak Time” value worked out at 0.5 h. Also, in the assay with ICR mice [1], the “BIC(ip) Peak Time” value was 1 h and the 50% effect level (ED50) was put at a dose of 30.8 mg/kg. In addition, in the assay on Sprague-Dawley rats, the 50% effect level (ED50) was put at a dose of 10.3 mg/kg and the “Vincristine-induced pain model Peak Time” value is listed as 0.5 h.

These data come from patent publication US10351519B2, “Sulfamate derivative compounds, processes for preparing them and their uses” (BIO-PHARM SOLUTIONS CO., LTD., priority 2016, dated 2019).
